Data published in US20060069132A1, “Azolecarboxamide herbicides” (priority 2004, published 2006).

Key:
[1] = system: barnyardgrass; assay: Test A pre-/postemergence herbicide test; type: in vivo, Echinochloa crus-galli
How it was run: (§1)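 Both application timings were run together: directed soil spray over freshly planted seeds in sandy loam, and runoff spray onto 2–10 cm seedlings. Evaluation after ~10 days in greenhouse used a 0–100 visual scale versus untreated controls.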

[2] = system: large crabgrass; assay: Test A pre-/postemergence herbicide test; type: in vivo, Digitaria sanguinalis
How it was run: as §1

[3] = system: giant foxtail; assay: Test A pre-/postemergence herbicide test; type: in vivo, Setaria faberi
How it was run: as §1

[4] = system: morningglory; assay: Test A pre-/postemergence herbicide test; type: in vivo, Ipomoea spp.
How it was run: as §1

[5] = system: redroot pigweed; assay: Test A pre-/postemergence herbicide test; type: in vivo, Amaranthus retroflexus
How it was run: as §1

[6] = system: velvetleaf; assay: Test A pre-/postemergence herbicide test; type: in vivo, Abutilon theophrasti
How it was run: as §1

[7] = system: barnyardgrass; assay: Test B pre-/postemergence herbicide test; type: in vivo, Echinochloa crus-galli
How it was run: (§2)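 Herbicidal effect was judged by eye on a 0–100 scale after plants stood 13 to 15 days in the greenhouse following pre- or postemergence treatment with surfactant-containing formulations.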

[8] = system: Surinam grass; assay: Test B pre-/postemergence herbicide test; type: in vivo, Urochloa decumbens
How it was run: (§3)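 Test chemicals in a non-phytotoxic solvent mixture with surfactant were applied preemergence to seeded species and postemergence to plants 2-18 cm tall (1- to 4-leaf stage); rice and barnyardgrass were also tested in a flooded paddy at the 2-leaf stage. Visual rating versus controls after 13-15 days in greenhouse, scale 0 (no effect) to 100 (complete control).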

[9] = system: cocklebur; assay: Test B pre-/postemergence herbicide test; type: in vivo, Xanthium strumarium
How it was run: as §2

[10] = system: corn; assay: Test B pre-/postemergence herbicide test; type: in vivo, Zea mays
How it was run: as §3

[11] = system: large crabgrass; assay: Test B pre-/postemergence herbicide test; type: in vivo, Digitaria sanguinalis
How it was run: as §3

[12] = system: giant foxtail; assay: Test B pre-/postemergence herbicide test; type: in vivo, Setaria faberi
How it was run: as §3

[13] = system: lambsquarters; assay: Test B pre-/postemergence herbicide test; type: in vivo, Chenopodium album
How it was run: as §3

[14] = system: morningglory; assay: Test B pre-/postemergence herbicide test; type: in vivo, Ipomoea coccinea
How it was run: as §2

[15] = system: pigweed; assay: Test B pre-/postemergence herbicide test; type: in vivo, Amaranthus retroflexus
How it was run: as §3

[16] = system: velvetleaf; assay: Test B pre-/postemergence herbicide test; type: in vivo, Abutilon theophrasti
How it was run: as §3

[17] = system: blackgrass; assay: Test B postemergence herbicide test; type: in vivo, Alopecurus myosuroides; conditions: scale 0 (no effect) to 100 (complete control)
How it was run: (§4)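 Treated at 2-leaf (paddy) or 1–4-leaf, 2–18 cm (postemergence); greenhouse 13–15 d; visual score vs control, 0 none to 100 complete control; dash = not tested.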

[18] = system: wheat; assay: Test B postemergence herbicide test; type: in vivo, Triticum aestivum; parameters: key to Wheat plant response rating: 0 = no effect, 100 = complete control; conditions: scale 0 (no effect) to 100 (complete control)
How it was run: (§5)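 Formulated test chemicals went onto postemergence plants measuring 2 to 18 cm, at one to four leaves. For the paddy assay, species had reached two leaves. Scoring took place 13–15 days later by eye, relative to untreated plants, using 0 for no effect up to 100 for full control.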

[19] = system: wild oat; assay: Test B postemergence herbicide test; type: in vivo, Avena fatua; conditions: scale 0 (no effect) to 100 (complete control)
How it was run: as §5

[20] = system: rice; assay: Test B flooded paddy test; type: in vivo, Oryza sativa; conditions: 1000 g ai/ha, visual rating, scale 0 to 100 (0 no effect, 100 complete control), 13 to 15 days
How it was run: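 Paddy species grown to the 2-leaf stage under flooding; blackgrass sprayed postemergence at 2–18 cm (1- to 4-leaf stage). Plants kept in a greenhouse for 13 to 15 days, then visually rated against controls on 0 (no effect) to 100 (complete control).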

[21] = system: small flower umbrella sedge; assay: Test B flooded paddy test; type: in vivo, Cyperus difformis; conditions: 1000 g ai/ha, visual rating, scale 0 to 100 (0 no effect, 100 complete control), 13 to 15 days
How it was run: as §4

[22] = system: ducksalad; assay: Test B flooded paddy test; type: in vivo, Heteranthera limosa; conditions: 1000 g ai/ha, visual rating, scale 0 to 100 (0 no effect, 100 complete control), 13 to 15 days
How it was run: as §4

[23] = system: barnyardgrass; assay: Test B flooded paddy test; type: in vivo, Echinochloa crus-galli; conditions: 1000 g ai/ha, visual rating, scale 0 to 100 (0 no effect, 100 complete control), 13 to 15 days
How it was run: as §4

[24] = Postemergence, 125 g ai/ha, 0 to 100 scale, 0 no effect, 100 complete control
[25] = Postemergence, 500 g ai/ha, 0 to 100 scale, 0 no effect, 100 complete control
[26] = Preemergence, 500 g ai/ha, visual rating, 0 to 100 scale (0 no effect, 100 complete control)
[27] = preemergence, 125 g ai/ha, visual injury, 0 to 100 scale (0 no effect, 100 complete control)
[28] = 500 g ai/ha, visual rating 0-100, 0 no effect, 100 complete control, preemergence
[29] = Postemergence, 500 g ai/ha, visual rating after 13 to 15 days, scale 0 (no effect) to 100 (complete control)
[30] = postemergence, 125 g ai/ha, visual rating, scale 0 (no effect) to 100 (complete control)
[31] = preemergence, 125 g ai/ha, 0 to 100 scale, 0 is no effect, 100 is complete control
[32] = Postemergence, 500 g ai/ha, visual rating after 13 to 15 days
[33] = postemergence, 125 g ai/ha, visual rating

SMILES: CC(=NO)c1cccc(NC(=O)c2cc(C(C)(C)C)nn2C(C)C)c1 [Compound 110]
- Barnyardgrass plant response rating [1, 24]: 30
- Barnyardgrass plant response rating [1, 25]: 30
- Barnyardgrass plant response rating [1, 26]: 5
- Barnyardgrass plant response rating [1, 27]: 10
- Crabgrass, Large plant response rating [2, 24]: 25
- Crabgrass, Large plant response rating [2, 25]: 30
- Crabgrass, Large plant response rating [2, 26]: 20
- Crabgrass, Large plant response rating [2, 27]: 15
- Foxtail, Giant plant response rating [3, 24]: 20
- Foxtail, Giant plant response rating [3, 25]: 25
- Foxtail, Giant plant response rating [3, 26]: 0
- Foxtail, Giant plant response rating [3, 27]: 0
- Morningglory plant response rating [4, 24]: 0
- Morningglory plant response rating [4, 25]: 10
- Morningglory plant response rating [4, 26]: 20
- Morningglory plant response rating [4, 27]: 10
- Pigweed plant response rating [5, 24]: 40
- Pigweed plant response rating [5, 25]: 50
- Pigweed plant response rating [5, 26]: 10
- Pigweed plant response rating [5, 27]: 10
- Velvetleaf plant response rating [6, 24]: 10
- Velvetleaf plant response rating [6, 25]: 10
- Velvetleaf plant response rating [6, 26]: 10
- Velvetleaf plant response rating [6, 27]: 10
- Plant response rating, Barnyardgrass [7, 28]: 10
- Plant response rating, Barnyardgrass [7, 29]: 20
- Barnyardgrass plant response rating [7, 30]: 10
- Plant response rating, Barnyardgrass [7, 31]: 10
- Plant response rating, Surinam Grass [8, 28]: 10
- Plant response rating, Surinam Grass [8, 29]: 30
- Surinam Grass plant response rating [8, 30]: 20
- Plant response rating, Surinam Grass [8, 31]: 10
- Plant response rating, Cocklebur [9, 28]: 10
- Plant response rating, Cocklebur [9, 29]: 40
- Cocklebur plant response rating [9, 30]: 10
- Plant response rating, Cocklebur [9, 31]: 0
- Plant response rating, Corn [10, 28]: 0
- Plant response rating, Corn [10, 29]: 20
- Corn plant response rating [10, 30]: 10
- Plant response rating, Corn [10, 31]: 0
- Plant response rating, Crabgrass, Large [11, 28]: 100
- Plant response rating, Crabgrass, Large [11, 29]: 20
- Crabgrass, Large plant response rating [11, 30]: 10
- Plant response rating, Crabgrass, Large [11, 31]: 80
- Plant response rating, Foxtail, Giant [12, 28]: 20
- Plant response rating, Foxtail, Giant [12, 29]: 10
- Foxtail, Giant plant response rating [12, 30]: 10
- Plant response rating, Foxtail, Giant [12, 31]: 10
- Plant response rating, Lambsquarters [13, 28]: 90
- Plant response rating, Lambsquarters [13, 29]: 60
- Lambsquarters plant response rating [13, 30]: 40
- Plant response rating, Lambsquarters [13, 31]: 20
- Plant response rating, Morningglory [14, 28]: 60
- Plant response rating, Morningglory [14, 29]: 30
- Morningglory plant response rating [14, 30]: 20
- Plant response rating, Morningglory [14, 31]: 20
- Plant response rating, Pigweed [15, 28]: 10
- Plant response rating, Pigweed [15, 29]: 50
- Pigweed plant response rating [15, 30]: 20
- Plant response rating, Pigweed [15, 31]: 0
- Plant response rating, Velvetleaf [16, 28]: 10
- Plant response rating, Velvetleaf [16, 29]: 40
- Velvetleaf plant response rating [16, 30]: 30
- Plant response rating, Velvetleaf [16, 31]: 0
- Plant response rating, Blackgrass [17, 32]: 0
- Blackgrass plant response rating [17, 33]: 0
- Plant response rating, Wheat [18, 32]: 30
- Wheat plant response rating [18, 33]: 10
- Plant response rating, Oat, Wild [19, 32]: 0
- Oat, Wild plant response rating [19, 33]: 0
- Rice plant response rating [20]: 20
- Sedge, Umbrella plant response rating [21]: 20
- Ducksalad plant response rating [22]: 0
- Barnyardgrass plant response rating [23]: 30
